Results reported in US7692030B2, “Conjugates of artemisinin-related endoperoxides and hydrazone derivatives for the treatment of cancer” (University of Washington, priority 2006, dated 2010).

Key:
Type in all cases: cell-based
HT29 = test: NCI DTP human tumor cell line screen (SRB); conditions: Colon Cancer, 10 μM, 48 h
Method: (§1) Representative compounds of the invention, prepared as described in EXAMPLES 1-6, were submitted to the Developmental Therapeutics Program of the United States National Cancer Institute (NCl) to screen for anti-cancer activity. The anti-cancer activities of the six compounds were tested against approximately 60 human tumor cell lines representing leukemia, melanoma, and cancers of the lung, colon, breast, ovary, kidney, prostate, and brain. The following screening methodology was provided by the NCl. […] For experimental screens, cells were inoculated into 96 well microtiter plates in 100 μL at plating densities ranging from 5,000 to 40,000 cells/well depending on the doubling time of individual cell lines. After cell inoculation, the microtiter plates were incubated at 37° C., 5% carbon dioxide, 95% air and 100% relative humidity for 24 hours prior to addition of the compounds. After 24 hours of incubation, two plates of each cell line were fixed in situ with trichloroacetic acid (TCA) to represent a measurement of the cell population for each cell line at the time of compound addition (Tz). The compounds were solubilized in dimethyl sulfoxide at 400-fold the desired final maximum test concentration and stored frozen prior to use. At the time of drug addition, frozen aliquots of the compounds thawed and diluted with complete medium containing 50 μg/ml gentamicin. Aliquots of 100 μl of these different compound dilutions were added to the appropriate microtiter wells already containing 100 μl of medium, resulting in the required final compound concentration of 10 μM. Following compound addition, the plates were incubated for an additional 48 h at 37° C., 5% carbon dioxide, 95% air, and 100% relative humidity. For adherent cells, the assay was terminated by the addition of cold TCA. Cells were fixed in situ by the gentle addition of 50 μl of cold 50% (w/v) TCA (final concentration, 10% TCA) and incubated for 60 minutes at 4° C. The supernatant was discarded, and the plates were washed five times with tap water and air dried. Sulforhodamine B (SRB) solution (100 μl) at 0.4% (w/v) in 1% acetic acid was added to each well, and plates were incubated for 10 minutes at room temperature. After staining, unbound dye was removed by washing five times with 1% acetic acid and the plates were air dried. Bound stain was subsequently solubilized with 10 mM trizma base, and the absorbance was read on an automated plate reader at a wavelength of 515 nm. For suspension cells, the methodology was the same except that the assay was terminated by fixing settled cells at the bottom of the wells by gently adding 50 μl of 80% TCA (final concentration, 16% TCA). Using the three absorbance measurements [time zero, (Tz), control growth, (C), and test growth in the presence of compound (Ti)], the percentage growth was calculated at each of the compound concentrations levels. Percentage growth inhibition was calculated with the following algorithms: [(Ti−Tz)/(C−Tz)]×100 for concentrations for which Ti>/=Tz [(Ti−Tz)/Tz]×100 for concentrations for which Ti<Tz The results of the NCl in vitro anticancer screening with six compounds against various human tumor cell lines are presented below in Tables 2-7. […] The growth percent mean, delta, and range for each compound are given below.

UO-31 = test: NCI DTP human tumor cell line screen (SRB); conditions: Renal Cancer, 10 μM, 48 h
Method: as §1

786-0 = test: NCI DTP human tumor cell line screen (SRB); conditions: Renal Cancer, 10 μM, 48 h
Method: as §1

M14 = test: NCI DTP human tumor cell line screen (SRB); conditions: Melanoma, 10 μM, 48 h
Method: as §1

SK-MEL-2 = test: NCI DTP human tumor cell line screen (SRB); conditions: Melanoma, 10 μM, 48 h
Method: as §1

HCT-15 = test: NCI DTP human tumor cell line screen (SRB); conditions: Colon Cancer, 10 μM, 48 h
Method: as §1

LOX IMVI = test: NCI DTP human tumor cell line screen (SRB); conditions: Melanoma, 10 μM, 48 h
Method: as §1

EKVX = test: NCI DTP human tumor cell line screen (SRB); conditions: Non-Small Cell Lung Cancer, 10 μM, 48 h
Method: as §1

MOLT-4 = test: NCI DTP human tumor cell line screen (SRB); conditions: Leukemia, 10 μM, 48 h
Method: as §1

NCI-H460 = test: NCI DTP human tumor cell line screen (SRB); conditions: Non-Small Cell Lung Cancer, 10 μM, 48 h
Method: as §1

ACHN = test: NCI DTP human tumor cell line screen (SRB); conditions: Renal Cancer, 10 μM, 48 h
Method: as §1

OVCAR-3 = test: NCI DTP human tumor cell line screen (SRB); conditions: Ovarian Cancer, 10 μM, 48 h
Method: as §1

SK-OV-3 = test: NCI DTP human tumor cell line screen (SRB); conditions: Ovarian Cancer, 10 μM, 48 h
Method: as §1

NCI-H522 = test: NCI DTP human tumor cell line screen (SRB); conditions: Non-Small Cell Lung Cancer, 10 μM, 48 h
Method: as §1

SR = test: NCI DTP human tumor cell line screen (SRB); conditions: Leukemia, 10 μM, 48 h
Method: as §1

HOP-92 = test: NCI DTP human tumor cell line screen (SRB); conditions: Non-Small Cell Lung Cancer, 10 μM, 48 h
Method: as §1

RPMI-8226 = test: NCI DTP human tumor cell line screen (SRB); conditions: Leukemia, 10 μM, 48 h
Method: as §1

SW-620 = test: NCI DTP human tumor cell line screen (SRB); conditions: Colon Cancer, 10 μM, 48 h
Method: as §1

NCI/ADR-RES = test: NCI DTP human tumor cell line screen (SRB); conditions: Breast Cancer, 10 μM, 48 h
Method: as §1

TK-10 = test: NCI DTP human tumor cell line screen (SRB); conditions: Renal Cancer, 10 μM, 48 h
Method: as §1

[1] = test system: approximately 60 human tumor cell lines; test: NCI DTP human tumor cell line screen, whole panel statistics; conditions: for inhibitory activities against cancer cells: DTP human tumor cell line screen, non-small cell lung, colon, breast, ovarian, leukemia, renal, melanoma, prostate, CNS cancer; for mean growth percent: mean over all cell lines tested; for mean growth percent / delta value (growth percent) / range (growth percent): 10 μM, 48 h; for delta value (growth percent) / range (growth percent): over all cell lines tested
Method: as §1

MALME-3M = test: NCI DTP human tumor cell line screen (SRB); conditions: Melanoma, 10 μM, 48 h
Method: as §1

NCI-H322M = test: NCI DTP human tumor cell line screen (SRB); conditions: Non-Small Cell Lung Cancer, 10 μM, 48 h
Method: as §1

KM12 = test: NCI DTP human tumor cell line screen (SRB); conditions: Colon Cancer, 10 μM, 48 h
Method: as §1

Structure (SMILES) | Growth Percent (HT29) [%] | Growth Percent (UO-31) [%] | Growth Percent (786-0) [%] | Growth Percent (SK-MEL-2) [%] | Growth Percent (HCT-15) [%] | Growth Percent (LOX IMVI) [%] | Growth Percent (EKVX) [%] | Growth Percent (MOLT-4) [%] | Growth Percent (NCI-H460) [%] | Growth Percent (ACHN) [%] | Growth Percent (OVCAR-3) [%] | Growth Percent (SK-OV-3) [%] | Growth Percent (SR) [%] | Growth Percent (HOP-92) [%] | Growth Percent (RPMI-8226) [%] | Growth Percent (SW-620) [%] | Growth Percent (NCI/ADR-RES) [%] | Growth Percent (TK-10) [%] | mean growth percent [1] [%] | delta value (growth percent) [1] | other results
CC1CCC2C(C)C(OCc3ccc(C(=O)NN=Cc4ccccc4O)o3)OC3OC4(C)CCC1C32OO4 (stereo not drawn) [ART-Furan-Sal, N′-(2-hydroxybenzylidene)-5-(dihydroxyartemisinin-methyl)-furan-2-carbohydrazide] | 22.40 | −35.28 | −22.22 | −27.21 | 30.86 | 0.03 | 25.37 | −23.49 | −26.28 | 7.80 | 30.23 | 14.53 | −29.47 | 37.02 | 13.00 | 13.95 | 11.14 | 40.77 | 6.1 | 54.64 | Growth Percent (M14): −48.54%; Growth Percent (NCI-H522): −10.76%; inhibitory activities against cancer cells [1]: inhibitory activities against several types of cancer cells; range (growth percent) [1]: 89.31; mean growth percent ([1]; summary text): 6.1%
CC1CCC2C(C)C(OCc3ccc(C(=O)NN=Cc4ccccc4)cc3)OC3OC4(C)CCC1C32OO4 (stereo not drawn) [ART-Phe-Bz, N′-(benzylidene)-4-(dihydroxyartemisinin-methyl)-phenyl carbohydrazide] | 18.46 | −21.11 | 26.79 | −3.22 | 16.27 | 8.89 | 16.45 | −25.73 | 32.58 | 16.91 | 11.56 | 53.03 | −24.04 | 2.94 | 1.50 | 19.48 | 19.93 | 19.78 | 17.28 | 66.68 | Growth Percent (M14): 34.29%; Growth Percent (MALME-3M): 32.27%; Growth Percent (NCI-H522): −9.33%; Growth Percent (NCI-H322M): 53.20%; Growth Percent (KM12): 10.19%; range (growth percent) [1]: 102.60
Cc1ncc(CO)c(C=NNC(=O)c2ccc(COC3OC4OC5(C)CCC6C(C)CCC(C3C)C46OO5)cc2)c1O (stereo not drawn) [ART-Phe-Pyridoxal, N′-(5-hydroxy-3-hydroxymethyl-2-methyl-4-pyridylidene)-4-(dihydroxyartemisinin-methyl)-phenyl carbohydrazide] | 32.72 | 4.39 | −19.54 | 20.14 | 15.22 | 4.22 | 12.34 | −25.71 | −3.33 | 7.45 | 19.87 | −4.66 | −29.75 | 20.97 | 9.56 | 14.32 | 44.16 | 6.35 | 7.85 | 51.68 | Growth Percent (MALME-3M): −17.79%; Growth Percent (NCI-H522): 38.92%; Growth Percent (NCI-H322M): 14.34%; Growth Percent (KM12): 17.87%; inhibitory activities against cancer cells [1]: inhibitory activities against several types of cancer cells; range (growth percent) [1]: 88.81; mean growth percent ([1]; summary text): 7.85%
CC1CCC2C(C)C(OCc3ccc(C(=O)NN=Cc4ccccc4O)cc3)OC3OC4(C)CCC1C32OO4 (stereo not drawn) [ART-Phe-Sal, N′-(2-hydroxybenzylidene)-4-(dihydroxyartemisinin-methyl)-phenyl carbohydrazide] | 22.93 | −17.67 | −12.09 | −20.76 | 32.15 | 1.55 | 28.62 | −30.65 | 0.59 | 10.40 | 29.79 | 17.00 | −44.93 | 56.27 | 22.87 | 30.24 | 21.55 | 20.96 | 10.55 | 67.26 | Growth Percent (M14): −37.45%; Growth Percent (MALME-3M): 16.70%; Growth Percent (NCI-H522): 5.74%; Growth Percent (NCI-H322M): 23.76%; Growth Percent (KM12): 23.72%; inhibitory activities against cancer cells [1]: inhibitory activities against several types of cancer cells; range (growth percent) [1]: 112.98
CC1CCC2C(C)C(OCCn3cc(C(=O)NN=Cc4ccccc4O)nn3)OC3OC4(C)CCC1C32OO4 (stereo not drawn) [ART-Triazole-Sal, N′-(2-hydroxybenzylidene)-1-(dihydroxyartemisinin-ethyl)-1H-1,2,3-triazole-4-carbohydrazide] | 31.44 | −28.61 | 1.80 | −15.86 | 34.01 | 6.87 | 35.04 | −0.29 | 2.83 | 15.69 | 50.36 | 32.87 | 0.08 | 44.42 | 18.69 | 31.03 | 15.88 | 38.15 | 22.31 | 53.47 | Growth Percent (M14): 3.07%; Growth Percent (MALME-3M): 42.33%; Growth Percent (NCI-H322M): 27.06%; Growth Percent (KM12): 29.83%; inhibitory activities against cancer cells [1]: inhibitory activities against several types of cancer cells; range (growth percent) [1]: 83.7; mean growth percent ([1]; summary text): 22.31%
